From PubChem BioAssay (NCI)
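At the GI50, growth is halved. Definition used: TGI = concentration required for complete inhibition of growth.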

Experiments:
Test in all cases: growth of human tumour cells (NCI), 384-well format
SR leukemia = tested on: SR leukemia
HS 578T breast = tested on: HS 578T breast
RXF 393 renal = tested on: RXF 393 renal
K-562 leukemia = tested on: K-562 leukemia
DU-145 prostate = tested on: DU-145 prostate
NCI-H23 lung = tested on: NCI-H23 lung
MDA-MB-231 breast = tested on: MDA-MB-231 breast
MOLT-4 leukemia = tested on: MOLT-4 leukemia
SK-MEL-2 melanoma = tested on: SK-MEL-2 melanoma
SNB-75 CNS = tested on: SNB-75 CNS
HT29 colon = tested on: HT29 colon
TK-10 renal = tested on: TK-10 renal
MALME-3M melanoma = tested on: MALME-3M melanoma
A498 renal = tested on: A498 renal
NCI-H322M lung = tested on: NCI-H322M lung
OVCAR-3 ovarian = tested on: OVCAR-3 ovarian
SW-620 colon = tested on: SW-620 colon
HL-60(TB) leukemia = tested on: HL-60(TB) leukemia
SNB-19 CNS = tested on: SNB-19 CNS
KM12 colon = tested on: KM12 colon
NCI-H226 lung = tested on: NCI-H226 lung
EKVX NSCLC = tested on: EKVX NSCLC
HCT-15 colon = tested on: HCT-15 colon
HCT-116 colon = tested on: HCT-116 colon
U251 glioblastoma = tested on: U251 glioblastoma
SK-OV-3 ovarian = tested on: SK-OV-3 ovarian
MCF7 breast = tested on: MCF7 breast
COLO 205 colon = tested on: COLO 205 colon

Work on `O=C(NOCCO)c1cc(CN2OCCCC2=O)c(F)c(F)c1Nc1ccc(I)cc1F` yielded a TGI (SR leukemia) of 11.1 µM, a GI50 (HS 578T breast) of 3.48 µM and a TGI (HS 578T breast) of 23.8 µM. The GI50 (RXF 393 renal) was 0.498 µM, the TGI (RXF 393 renal) was 7.61 µM and the GI50 (K-562 leukemia) was 0.0276 µM. For the same molecule, the TGI (K-562 leukemia) was 17 µM, the GI50 (DU-145 prostate) was 1.41 µM and the TGI (DU-145 prostate) was greater than 100 µM. For the same molecule, the GI50 (NCI-H23 lung) was less than 0.01 µM, the TGI (NCI-H23 lung) was 0.371 µM and the GI50 (MDA-MB-231 breast) was 0.0601 µM. It also gave a TGI (MDA-MB-231 breast) greater than 100 µM, a GI50 (MOLT-4 leukemia) of 7.81 µM and a TGI (MOLT-4 leukemia) of 20.6 µM. It also gave a GI50 (SK-MEL-2 melanoma) of less than 0.01 µM, a TGI (SK-MEL-2 melanoma) of 0.019 µM and a GI50 (SNB-75 CNS) of 2.85 µM. It also gave a TGI (SNB-75 CNS) of 17.7 µM, a GI50 (HT29 colon) of less than 0.01 µM and a TGI (HT29 colon) of 20.8 µM. It also gave a GI50 (TK-10 renal) of 0.198 µM, a TGI (TK-10 renal) of 44.7 µM and a GI50 (MALME-3M melanoma) of less than 0.01 µM. It also gave a TGI (MALME-3M melanoma) of less than 0.01 µM, a GI50 (A498 renal) of 0.236 µM and a TGI (A498 renal) of 23.4 µM. It also gave a GI50 (NCI-H322M lung) of 0.0737 µM, a TGI (NCI-H322M lung) of 4.19 µM and a GI50 (OVCAR-3 ovarian) of 10.2 µM. It also gave a TGI (OVCAR-3 ovarian) of 39.6 µM, a GI50 (SW-620 colon) of less than 0.01 µM and a TGI (SW-620 colon) greater than 100 µM. For the same molecule, the GI50 (HL-60(TB) leukemia) was less than 0.01 µM, the TGI (HL-60(TB) leukemia) was 10.6 µM and the GI50 (SNB-19 CNS) was 12.7 µM. The TGI (SNB-19 CNS) was 62.8 µM, the GI50 (KM12 colon) was 1.71 µM and the TGI (KM12 colon) was greater than 100 µM. It also gave a GI50 (NCI-H226 lung) of 0.0421 µM, a TGI (NCI-H226 lung) of 7.38 µM and a GI50 (EKVX NSCLC) of 0.201 µM. It also gave a TGI (EKVX NSCLC) of 14.9 µM, a GI50 (HCT-15 colon) of 5.87 µM and a TGI (HCT-15 colon) greater than 100 µM. It also gave a GI50 (HCT-116 colon) of 0.018 µM, a TGI (HCT-116 colon) of 1.28 µM and a GI50 (U251 glioblastoma) of 0.209 µM. For the same molecule, the TGI (U251 glioblastoma) was 17.8 µM, the GI50 (SK-OV-3 ovarian) was 8.12 µM and the TGI (SK-OV-3 ovarian) was 55.4 µM. The GI50 (MCF7 breast) was 5.12 µM, the TGI (MCF7 breast) was 35.6 µM and the GI50 (COLO 205 colon) was less than 0.01 µM. The TGI (COLO 205 colon) was 0.027 µM.
